Values quoted from earlier work, collected in patent publication US8138336B2, “Pyrrolotriazine derivatives useful for treating cancer through inhibition of aurora kinase” (Bayer HealthCare LLC, priority 2007, dated 2012).
Read-outs that look alike come from different tables or passages of the source.

System: breast tumors

Compound: CC(=O)O[C@@]12CO[C@@H]1C[C@H](O)[C@@]1(C)C(=O)[C@H](O)C3=C(C)[C@@H](OC(=O)[C@H](O)[C@@H](NC(=O)OC(C)(C)C)c4ccccc4)C[C@@](O)([C@@H](OC(=O)c4ccccc4)[C@H]21)C3(C)C [Docetaxel]
- response rate to Docetaxel treatment (patients with breast tumors with high Aurora-A mRNA levels): 41%
- response rate to Docetaxel treatment (patients with low Aurora-A mRNA breast tumors): 71%
